Reference: paper PMC8264935 (ACS Omega, 2021)

Tested on: CbTA (ω-transaminase from Chloroflexi bacterium)
Experiment: HPLC initial rate, Michaelis-Menten nonlinear fit
Format: biochemical, Chloroflexota bacterium
Conditions: 0.02 mM PLP, glycine-NaOH pH 8.5, 45 °C

Km (20 mM pyruvate co-substrate) [mM]	Km (20 mM (R)-MBA co-substrate) [mM]	SMILES
14.7		C[C@@H](N)c1ccccc1 [(R)-MBA]
	2.83	CC(=O)C(=O)O [C1, pyruvate]
